Measured values reported in the NIST ThermoML archive (doi:10.1021/je8001199).
± gives the expanded uncertainty stated by the source.

Experiments:
[1] = 200 kPa, Liquid
[2] = xn = mol fraction of the nth substance listed; conditions: 200 kPa, Liquid

SMILES: NCCN [ethane-1,2-diamine]
- mass density ([1]; 283.55 K): 905.993 ± 0.17 kg/m3
- mass density ([1]; 293.06 K): 897.168 ± 0.17 kg/m3
- mass density ([1]; 302.4 K): 888.38 ± 0.17 kg/m3
- mass density ([1]; 312.67 K): 878.632 ± 0.18 kg/m3
- mass density ([1]; 323.15 K): 868.618 ± 0.19 kg/m3
- mass density ([1]; 332.78 K): 859.342 ± 0.19 kg/m3
- mass density ([1]; 342.77 K): 849.651 ± 0.2 kg/m3
- mass density ([1]; 352.69 K): 839.921 ± 0.2 kg/m3

SMILES: NCCN [ethane-1,2-diamine] + O
- mass density ([2]; 282.78 K, x2 = 0.3967): 956.193 ± 0.15 kg/m3
- mass density ([2]; 282.92 K, x2 = 0.2017): 929.116 ± 0.15 kg/m3
- mass density ([2]; 282.96 K, x2 = 0.301): 942.071 ± 0.15 kg/m3
- mass density ([2]; 283.11 K, x2 = 0.8936): 1000.8 ± 0.12 kg/m3
- mass density ([2]; 283.13 K, x2 = 0.1028): 917.186 ± 0.16 kg/m3
- mass density ([2]; 283.26 K, x2 = 0.5026): 973.123 ± 0.15 kg/m3
- mass density ([2]; 283.47 K, x2 = 0.7687): 1005.97 ± 0.12 kg/m3
- mass density ([2]; 283.55 K, x2 = 0): 905.993 ± 0.17 kg/m3
- mass density ([2]; 283.69 K, x2 = 0.6032): 989.21 ± 0.14 kg/m3
- mass density ([2]; 284.35 K, x2 = 0.7026): 1001.48 ± 0.12 kg/m3
- mass density ([2]; 292.62 K, x2 = 0.8936): 996.472 ± 0.12 kg/m3
- mass density ([2]; 292.67 K, x2 = 0.5026): 964.635 ± 0.16 kg/m3
- mass density ([2]; 292.85 K, x2 = 0.7026): 994.548 ± 0.12 kg/m3
- mass density ([2]; 292.93 K, x2 = 0.2017): 919.983 ± 0.16 kg/m3
- mass density ([2]; 292.93 K, x2 = 0.301): 933.047 ± 0.15 kg/m3
- mass density ([2]; 293.05 K, x2 = 0.1028): 908.064 ± 0.16 kg/m3
- mass density ([2]; 293.06 K, x2 = 0): 897.168 ± 0.17 kg/m3
- mass density ([2]; 293.09 K, x2 = 0.3967): 946.948 ± 0.15 kg/m3
- mass density ([2]; 293.24 K, x2 = 0.7687): 998.968 ± 0.12 kg/m3
- mass density ([2]; 293.29 K, x2 = 0.6032): 980.744 ± 0.14 kg/m3
- mass density ([2]; 301.58 K, x2 = 0.7026): 987.238 ± 0.13 kg/m3
- mass density ([2]; 302.39 K, x2 = 0.6032): 972.594 ± 0.14 kg/m3
- mass density ([2]; 302.4 K, x2 = 0): 888.38 ± 0.17 kg/m3
- mass density ([2]; 302.47 K, x2 = 0.7687): 992.107 ± 0.12 kg/m3
- mass density ([2]; 302.85 K, x2 = 0.3967): 938.019 ± 0.16 kg/m3
- mass density ([2]; 302.85 K, x2 = 0.5026): 955.328 ± 0.16 kg/m3
- mass density ([2]; 302.96 K, x2 = 0.301): 923.821 ± 0.16 kg/m3
- mass density ([2]; 302.97 K, x2 = 0.8936): 991.261 ± 0.12 kg/m3
- mass density ([2]; 302.99 K, x2 = 0.1028): 898.81 ± 0.17 kg/m3
- mass density ([2]; 303.1 K, x2 = 0.2017): 910.588 ± 0.16 kg/m3
- mass density ([2]; 311.86 K, x2 = 0.7026): 978.33 ± 0.13 kg/m3
- mass density ([2]; 312.55 K, x2 = 0.6032): 963.3 ± 0.15 kg/m3
- mass density ([2]; 312.59 K, x2 = 0.7687): 984.36 ± 0.12 kg/m3
- mass density ([2]; 312.67 K, x2 = 0): 878.632 ± 0.18 kg/m3
- mass density ([2]; 312.77 K, x2 = 0.5026): 946.166 ± 0.16 kg/m3
- mass density ([2]; 313 K, x2 = 0.301): 914.5 ± 0.17 kg/m3
- mass density ([2]; 313.02 K, x2 = 0.8936): 985.719 ± 0.12 kg/m3
- mass density ([2]; 313.11 K, x2 = 0.1028): 889.308 ± 0.17 kg/m3
- mass density ([2]; 313.14 K, x2 = 0.2017): 901.221 ± 0.17 kg/m3
- mass density ([2]; 313.98 K, x2 = 0.3967): 927.719 ± 0.16 kg/m3
- mass density ([2]; 322.34 K, x2 = 0.7687): 976.647 ± 0.13 kg/m3
- mass density ([2]; 322.65 K, x2 = 0.6032): 953.972 ± 0.15 kg/m3
- mass density ([2]; 322.72 K, x2 = 0.7026): 968.66 ± 0.14 kg/m3
- mass density ([2]; 322.86 K, x2 = 0.301): 905.205 ± 0.17 kg/m3
- mass density ([2]; 322.88 K, x2 = 0.5026): 936.708 ± 0.17 kg/m3
- mass density ([2]; 322.93 K, x2 = 0.2017): 891.98 ± 0.17 kg/m3
- mass density ([2]; 323.04 K, x2 = 0.1028): 879.883 ± 0.18 kg/m3
- mass density ([2]; 323.15 K, x2 = 0): 868.618 ± 0.19 kg/m3
- mass density ([2]; 323.15 K, x2 = 0.8936): 979.69 ± 0.12 kg/m3
- mass density ([2]; 323.75 K, x2 = 0.3967): 918.543 ± 0.17 kg/m3
- mass density ([2]; 332.41 K, x2 = 0.7026): 960.004 ± 0.14 kg/m3
- mass density ([2]; 332.77 K, x2 = 0.7687): 968.171 ± 0.13 kg/m3
- mass density ([2]; 332.78 K, x2 = 0): 859.342 ± 0.19 kg/m3
- mass density ([2]; 332.89 K, x2 = 0.5026): 927.173 ± 0.17 kg/m3
- mass density ([2]; 332.96 K, x2 = 0.301): 895.557 ± 0.17 kg/m3
- mass density ([2]; 333.02 K, x2 = 0.6032): 944.229 ± 0.16 kg/m3
- mass density ([2]; 333.1 K, x2 = 0.1028): 870.208 ± 0.19 kg/m3
- mass density ([2]; 333.11 K, x2 = 0.2017): 882.167 ± 0.18 kg/m3
- mass density ([2]; 333.38 K, x2 = 0.8936): 973.322 ± 0.13 kg/m3
- mass density ([2]; 333.53 K, x2 = 0.3967): 909.227 ± 0.17 kg/m3
- mass density ([2]; 342.6 K, x2 = 0.7687): 959.937 ± 0.14 kg/m3
- mass density ([2]; 342.64 K, x2 = 0.5026): 917.789 ± 0.18 kg/m3
- mass density ([2]; 342.77 K, x2 = 0): 849.651 ± 0.2 kg/m3
- mass density ([2]; 342.81 K, x2 = 0.3967): 900.276 ± 0.18 kg/m3
- mass density ([2]; 342.98 K, x2 = 0.301): 885.862 ± 0.18 kg/m3
- mass density ([2]; 343.04 K, x2 = 0.1028): 860.531 ± 0.19 kg/m3
- mass density ([2]; 343.08 K, x2 = 0.7026): 950.214 ± 0.15 kg/m3
- mass density ([2]; 343.09 K, x2 = 0.8936): 966.519 ± 0.13 kg/m3
- mass density ([2]; 343.13 K, x2 = 0.2017): 872.529 ± 0.19 kg/m3
- mass density ([2]; 352.14 K, x2 = 0.7687): 951.742 ± 0.14 kg/m3
- mass density ([2]; 352.69 K, x2 = 0): 839.921 ± 0.2 kg/m3
- mass density ([2]; 352.71 K, x2 = 0.5026): 907.894 ± 0.18 kg/m3
- mass density ([2]; 352.83 K, x2 = 0.301): 876.2 ± 0.19 kg/m3
- mass density ([2]; 352.9 K, x2 = 0.8936): 959.494 ± 0.13 kg/m3
- mass density ([2]; 353.02 K, x2 = 0.1028): 850.773 ± 0.2 kg/m3
- mass density ([2]; 353.03 K, x2 = 0.2017): 862.815 ± 0.19 kg/m3
- mass density ([2]; 353.34 K, x2 = 0.3967): 889.949 ± 0.18 kg/m3
- mass density ([2]; 353.48 K, x2 = 0.7026): 940.524 ± 0.15 kg/m3

SMILES: O [water] + NCCN
- mass density ([2]; 283.4 K, x1 = 1): 999.862 ± 0.12 kg/m3
- mass density ([2]; 293.28 K, x1 = 1): 998.365 ± 0.12 kg/m3
- mass density ([2]; 302.62 K, x1 = 1): 995.966 ± 0.12 kg/m3
- mass density ([2]; 312.13 K, x1 = 1): 992.723 ± 0.12 kg/m3
- mass density ([2]; 322.73 K, x1 = 1): 988.284 ± 0.12 kg/m3
- mass density ([2]; 332.94 K, x1 = 1): 983.292 ± 0.12 kg/m3
- mass density ([2]; 342.53 K, x1 = 1): 978.02 ± 0.12 kg/m3
- mass density ([2]; 352.19 K, x1 = 1): 972.189 ± 0.13 kg/m3
